# In ChEMBL document CHEMBL6083208, “Integrating amino acids into Bcr-Abl inhibitors: design, synthesis, biological evaluation, and in silico studies” (RSC Med Chem, 2024):
# The source made the active and inactive calls. The calls are words filed in the database; no cut-off is given here.
# Legend:
# [1] = biological target: Bcr/Abl fusion protein (Homo sapiens, UniProt P00519); experiment: Inhibition of wild type Bcr-Abl (unknown origin) using Abltide as substrate incubated for 1 hr by luminescence based ADP-glo assay; type: protein assay
# Sequence of Bcr/Abl fusion protein (P00519 whole entry, the tested form may be a part): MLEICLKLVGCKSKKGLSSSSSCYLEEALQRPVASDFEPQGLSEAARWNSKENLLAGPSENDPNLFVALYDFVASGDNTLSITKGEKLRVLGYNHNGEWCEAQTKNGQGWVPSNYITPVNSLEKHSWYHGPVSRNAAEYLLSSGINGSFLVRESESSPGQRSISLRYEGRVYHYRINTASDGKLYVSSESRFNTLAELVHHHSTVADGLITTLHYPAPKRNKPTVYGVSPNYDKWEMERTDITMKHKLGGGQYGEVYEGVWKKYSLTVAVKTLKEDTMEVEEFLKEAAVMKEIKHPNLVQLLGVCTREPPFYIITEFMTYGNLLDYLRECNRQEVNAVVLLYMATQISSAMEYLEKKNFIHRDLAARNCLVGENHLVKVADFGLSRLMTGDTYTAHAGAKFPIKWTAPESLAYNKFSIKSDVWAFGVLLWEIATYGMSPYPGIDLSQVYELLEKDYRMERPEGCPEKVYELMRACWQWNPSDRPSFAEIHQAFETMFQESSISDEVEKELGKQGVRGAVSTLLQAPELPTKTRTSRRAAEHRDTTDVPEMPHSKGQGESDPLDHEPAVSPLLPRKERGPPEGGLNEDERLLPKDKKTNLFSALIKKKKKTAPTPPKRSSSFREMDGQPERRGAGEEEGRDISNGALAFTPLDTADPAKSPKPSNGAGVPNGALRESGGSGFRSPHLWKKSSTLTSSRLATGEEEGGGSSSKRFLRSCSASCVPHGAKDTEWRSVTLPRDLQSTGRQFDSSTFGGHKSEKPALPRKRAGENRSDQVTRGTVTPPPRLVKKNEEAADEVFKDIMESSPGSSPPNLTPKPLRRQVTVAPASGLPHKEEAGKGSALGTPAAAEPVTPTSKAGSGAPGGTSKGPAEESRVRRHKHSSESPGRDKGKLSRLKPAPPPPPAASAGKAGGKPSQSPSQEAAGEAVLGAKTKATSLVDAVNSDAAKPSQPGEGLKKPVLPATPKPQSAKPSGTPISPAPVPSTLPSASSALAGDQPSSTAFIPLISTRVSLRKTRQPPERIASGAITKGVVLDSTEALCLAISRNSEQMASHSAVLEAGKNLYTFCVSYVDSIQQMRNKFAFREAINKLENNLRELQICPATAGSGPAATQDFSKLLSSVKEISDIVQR
# Sequence of Bcr/Abl fusion protein (P11274 whole entry, further chain, the tested form may be a part): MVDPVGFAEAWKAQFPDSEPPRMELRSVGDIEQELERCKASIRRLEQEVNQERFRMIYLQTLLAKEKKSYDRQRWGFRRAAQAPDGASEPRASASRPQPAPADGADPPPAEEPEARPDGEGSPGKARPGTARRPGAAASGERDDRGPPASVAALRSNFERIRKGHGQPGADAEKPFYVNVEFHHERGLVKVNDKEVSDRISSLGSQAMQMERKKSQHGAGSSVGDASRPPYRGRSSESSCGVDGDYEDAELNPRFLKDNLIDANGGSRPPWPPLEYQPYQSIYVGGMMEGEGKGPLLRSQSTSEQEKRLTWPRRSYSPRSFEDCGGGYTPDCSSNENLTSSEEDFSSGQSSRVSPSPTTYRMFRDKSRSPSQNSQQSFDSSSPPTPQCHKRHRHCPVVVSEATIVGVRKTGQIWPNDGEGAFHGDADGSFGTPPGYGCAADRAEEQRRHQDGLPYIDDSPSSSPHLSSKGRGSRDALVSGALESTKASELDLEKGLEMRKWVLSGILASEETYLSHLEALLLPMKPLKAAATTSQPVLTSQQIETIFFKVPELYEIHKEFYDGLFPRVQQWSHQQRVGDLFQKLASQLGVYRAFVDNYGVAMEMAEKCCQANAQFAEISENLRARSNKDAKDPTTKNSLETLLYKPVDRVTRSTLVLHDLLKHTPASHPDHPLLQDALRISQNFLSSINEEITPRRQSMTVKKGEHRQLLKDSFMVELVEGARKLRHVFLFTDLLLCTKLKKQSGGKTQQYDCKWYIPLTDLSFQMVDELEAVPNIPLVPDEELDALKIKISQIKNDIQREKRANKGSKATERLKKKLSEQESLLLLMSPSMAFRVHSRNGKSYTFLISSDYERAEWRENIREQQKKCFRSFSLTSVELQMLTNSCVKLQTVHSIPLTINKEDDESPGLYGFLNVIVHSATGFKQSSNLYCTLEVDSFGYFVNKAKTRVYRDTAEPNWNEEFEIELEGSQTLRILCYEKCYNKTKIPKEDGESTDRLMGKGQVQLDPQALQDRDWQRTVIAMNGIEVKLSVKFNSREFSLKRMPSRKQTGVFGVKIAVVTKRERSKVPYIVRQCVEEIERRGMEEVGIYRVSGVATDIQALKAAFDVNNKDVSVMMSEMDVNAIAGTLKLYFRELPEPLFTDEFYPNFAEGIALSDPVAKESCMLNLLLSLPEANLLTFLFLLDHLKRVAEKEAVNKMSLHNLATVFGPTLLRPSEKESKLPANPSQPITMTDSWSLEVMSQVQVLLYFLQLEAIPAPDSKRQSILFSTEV
# [2] = Inhibition of Bcr-Abl T315Ialpha mutant (unknown origin) using Abltide as substrate incubated for 1 hr by luminescence based ADP-glo assay; set-up: species or system Homo sapiens
# [3] = test system: BaF3; experiment: Antiproliferative activity against mouse BaF3 cells harbouring Bcr-Abl T315I assessed of cell viability at 30 uM incubated for 72 hrs by Celltiter-glo luminescent cell viability assay relative to control; type: functional
# [4] = test system: BaF3; experiment: Antiproliferative activity against mouse BaF3 cells harbouring Bcr-Abl T315I assessed of cell viability at 10 uM incubated for 72 hrs by Celltiter-glo luminescent cell viability assay relative to control; type: functional
# [5] = test system: BaF3; experiment: Antiproliferative activity against mouse BaF3 cells harbouring Bcr-Abl T315I assessed of cell viability at 2 uM incubated for 72 hrs by Celltiter-glo luminescent cell viability assay relative to control; type: functional
# [6] = test system: HEK293; experiment: Antiproliferative activity against HEK293 cells after 48 hrs by MTT assay; type: toxicity, cell-based; set-up: concentration or dose not given beside the values; conditions: human, hek293, 48 h
# [7] = test system: THP-1; experiment: Antiproliferative activity against human THP-1 cells after 48 hrs by MTT assay; type: functional; set-up: concentration or dose not given beside the values
# [8] = test system: K562; experiment: Induction of apoptosis in human K562 cells assessed as viable cells at 1 uM measured after 48 hrs by annexin-V/FITC and propidium iodide staining double based flow cytometry analysis (reference value: 87.47%); type: functional; conditions: read-out: Activity
# [9] = test system: K562; experiment: Induction of apoptosis in human K562 cells assessed as viable cells at 10 uM measured after 48 hrs by annexin-V/FITC and propidium iodide double staining based flow cytometry analysis (reference value: 87.47%); type: functional; conditions: read-out: Activity
# [10] = test system: K562; experiment: Induction of apoptosis in human K562 cells assessed as viable cells at 20 uM measured after 48 hrs by annexin-V/FITC and propidium iodide double staining based flow cytometry analysis (reference value: 87.47%); type: functional; conditions: read-out: Activity
# [11] = test system: K562; experiment: Induction of apoptosis in human K562 cells assessed as early apoptotic cells at 1 uM measured after 48 hrs by annexin-V/FITC and propidium iodide double staining based flow cytometry analysis (reference value: 2.16%); type: functional
# [12] = test system: K562; experiment: Induction of apoptosis in human K562 cells assessed as early apoptotic cells at 10 uM measured after 48 hrs by annexin-V/FITC and propidium iodide double staining based flow cytometry analysis (reference value: 2.16%); type: functional
# [13] = test system: K562; experiment: Induction of apoptosis in human K562 cells assessed as early apoptotic cells at 20 uM measured after 48 hrs by annexin-V/FITC and propidium iodide double staining based flow cytometry analysis (reference value: 2.16%); type: functional
# [14] = test system: K562; experiment: Induction of apoptosis in human K562 cells assessed as late apoptotic cells at 1 uM measured after 48 hrs by annexin-V/FITC and propidium iodide double staining based flow cytometry analysis (reference value: 10.34%); type: functional
# [15] = test system: K562; experiment: Induction of apoptosis in human K562 cells assessed as late apoptotic cells at 10 uM measured after 48 hrs by annexin-V/FITC and propidium iodide double staining based flow cytometry analysis (reference value: 10.34%); type: functional
# [16] = test system: K562; experiment: Induction of apoptosis in human K562 cells assessed as late apoptotic cells at 20 uM measured after 48 hrs by annexin-V/FITC and propidium iodide double staining based flow cytometry analysis (reference value: 10.34%); type: functional
# [17] = test system: K562; experiment: Induction of apoptosis in human K562 cells assessed as necrotic cells at 1 uM measured after 48 hrs by annexin-V/FITC and propidium iodide double staining based flow cytometry analysis (reference value: 0.03%); type: functional
# [18] = test system: K562; experiment: Induction of apoptosis in human K562 cells assessed as necrotic cells at 10 uM measured after 48 hrs by annexin-V/FITC and propidium iodide double staining based flow cytometry analysis (reference value: 0.03%); type: functional
# [19] = test system: K562; experiment: Induction of apoptosis in human K562 cells assessed as necrotic cells at 20 uM measured after 48 hrs by annexin-V/FITC and propidium iodide double staining based flow cytometry analysis (reference value: 0.03%); type: functional
# [20] = test system: K562; experiment: Induction of cell cycle arrest in human K562 cells assessed as increase in accumulation of cells at G0/G1 phase measured after 48 hrs by PI staining based flow cytometry analysis; type: functional; conditions: dose 1-20 µM
# [21] = biological target: T1, Bcr/Abl fusion protein (Homo sapiens) (UniProt P00519+P11274); experiment: Inhibition of wild type BCR-ABL in human K562 cells assessed as inhibition of Bcr-Abl phosphorylation level at high concentration measured after 48 hrs by Western blot analysis; type: cell-based
# T1 sequence (P00519 whole entry, looked up, the tested form may be a part): as the sequence (P00519 whole entry, the tested form may be a part) above
# T1 sequence (P11274 whole entry, looked up, the tested form may be a part): as the sequence (P11274 whole entry, further chain, the tested form may be a part) above
# [22] = biological target: T1, Bcr/Abl fusion protein (Homo sapiens); experiment: Inhibition of wild type BCR-ABL in human K562 cells assessed as inhibition of STAT5 phosphorylation level at high concentration measured after 48 hrs by Western blot analysis; type: cell-based
# [23] = biological target: T1, Bcr/Abl fusion protein (Homo sapiens); experiment: Inhibition of wild type BCR-ABL in human K562 cells assessed as inhibition of Bcr-Abl phosphorylation level at 20 uM measured after 48 hrs by Western blot analysis; type: cell-based
# [24] = biological target: T1, Bcr/Abl fusion protein (Homo sapiens); experiment: Inhibition of wild type BCR-ABL in human K562 cells assessed as inhibition of STAT5 phosphorylation level at 20 uM measured after 48 hrs by Western blot analysis; type: cell-based
# [25] = test system: K562; experiment: cells; conditions: Homo sapiens, K562, 48 h
# [26] = test system: K562; experiment: cells; conditions: Homo sapiens, K562, 48 h, read-out: Activity
# [27] = test system: K562; experiment: cells; conditions: Homo sapiens, K562, 48 h, read-out: Activity; remark: listed apart in the source
# [28] = test system: K562; experiment: cells; conditions: Homo sapiens, K562, 48 h, read-out: Activity; remark: listed apart in the source
# [29] = test system: K562; experiment: Induction of apoptosis in human K562 cells assessed as viable cells at 1 uM measured after 48 hrs by annexin-V/FITC and propidium iodide double staining based flow cytometry analysis (reference value: 85.73%); type: functional; conditions: read-out: Activity
# [30] = test system: K562; experiment: Induction of apoptosis in human K562 cells assessed as viable cells at 10 uM measured after 48 hrs by annexin-V/FITC and propidium iodide double staining based flow cytometry analysis (reference value: 85.73%); type: functional; conditions: read-out: Activity
# [31] = test system: K562; experiment: Induction of apoptosis in human K562 cells assessed as viable cells at 15 uM measured after 48 hrs by annexin-V/FITC and propidium iodide double staining based flow cytometry analysis (reference value: 85.73%); type: functional; conditions: read-out: Activity
# [32] = test system: K562; experiment: Induction of apoptosis in human K562 cells assessed as early apoptotic cells at 1 uM measured after 48 hrs by annexin-V/FITC and propidium iodide double staining based flow cytometry analysis (reference value: 1.96%); type: functional
# [33] = test system: K562; experiment: Induction of apoptosis in human K562 cells assessed as early apoptotic cells at 10 uM measured after 48 hrs by annexin-V/FITC and propidium iodide double staining based flow cytometry analysis (reference value: 1.96%); type: functional
# [34] = test system: K562; experiment: Induction of apoptosis in human K562 cells assessed as early apoptotic cells at 15 uM measured after 48 hrs by annexin-V/FITC and propidium iodide double staining based flow cytometry analysis (reference value: 1.96%); type: functional
# [35] = test system: K562; experiment: Induction of apoptosis in human K562 cells assessed as late apoptotic cells at 1 uM measured after 48 hrs by annexin-V/FITC and propidium iodide double staining based flow cytometry analysis (reference value: 12.03%); type: functional
# [36] = test system: K562; experiment: Induction of apoptosis in human K562 cells assessed as late apoptotic cells at 10 uM measured after 48 hrs by annexin-V/FITC and propidium iodide double staining based flow cytometry analysis (reference value: 12.03%); type: functional
# [37] = test system: K562; experiment: Induction of apoptosis in human K562 cells assessed as late apoptotic cells at 15 uM measured after 48 hrs by annexin-V/FITC and propidium iodide double staining based flow cytometry analysis (reference value: 12.03%); type: functional
# [38] = test system: K562; experiment: Induction of apoptosis in human K562 cells assessed as necrotic cells at 1 uM measured after 48 hrs by annexin-V/FITC and propidium iodide double staining based flow cytometry analysis (reference value: 0.27%); type: functional
# [39] = test system: K562; experiment: Induction of apoptosis in human K562 cells assessed as necrotic cells at 10 uM measured after 48 hrs by annexin-V/FITC and propidium iodide double staining based flow cytometry analysis (reference value: 0.27%); type: functional
# [40] = test system: K562; experiment: Induction of apoptosis in human K562 cells assessed as necrotic cells at 15 uM measured after 48 hrs by annexin-V/FITC and propidium iodide double staining based flow cytometry analysis (reference value: 0.27%); type: functional
# [41] = test system: K562; experiment: Induction of cell cycle arrest in human K562 cells assessed as reduction in accumulation of cells at S phase at 1 to 15 uM measured after 48 hrs by PI staining based flow cytometry analysis; type: functional; conditions: dose 1-15 µM
# [42] = test system: K562; experiment: Induction of cell cycle arrest in human K562 cells assessed as increase in accumulation of cells at G0/G1 phase at 1 to 15 uM measured after 48 hrs by PI staining based flow cytometry analysis; type: functional; conditions: dose 1-15 µM
smiles,measurement,setting,value
CC(=O)Nc1cc(-c2ccc(C(=O)N[C@@H](COC(C)(C)C)C(=O)Nc3ccc(Cl)c(C(F)(F)F)c3)cc2)ccn1,IC50,[1],0.231 nM
same,IC50,[2],37.5 nM
same,inhibition at 30 µM,[3],98.1%
same,inhibition at 10 µM,[4],64.1%
same,inhibition at 2 µM,[5],7.66%
same,Activity,[6],95%
same,Activity,[7],66%
same,viability at 1 µM,[8],73.9%
same,viability at 10 µM,[9],59.4%
same,viability at 20 µM,[10],31.8%
same,Activity,[11],1.37%
same,Activity,[12],1.64%
same,Activity,[13],1.52%
same,Activity,[14],24.67%
same,Activity,[15],38.85%
same,Activity,[16],66.61%
same,Activity,[17],0.07%
same,Activity,[18],0.07%
same,Activity,[19],0.07%
same,Activity,[20],Dose-dependent-effect
same,inhibition,[21],Active
same,inhibition,[22],Active
same,inhibition,[23],Active
same,inhibition,[24],Active
same,IC50,[25],0.06 nM
Cc1ccc(NC(=O)c2ccc(CN3CCN(C)CC3)cc2)cc1Nc1nccc(-c2cccnc2)n1 [IMATINIB],Activity,[6],87%
same,Activity,[7],100%
same,IC50,[25],2.03 nM
same,viability at 1 µM,[26],72.9%
same,viability at 5 µM,[27],74.3%
same,viability at 10 µM,[28],67.4%
CC(C)(C)C(=O)Nc1cc(-c2ccc(C(=O)N[C@@H](CO)C(=O)Nc3ccc(Cl)c(C(F)(F)F)c3)cc2)ccn1,IC50,[1],5.01 nM
same,IC50,[2],122 nM
same,inhibition at 30 µM,[3],99.2%
same,inhibition at 10 µM,[4],99.9%
same,inhibition at 2 µM,[5],0.2%
same,Activity,[6],87%
same,Activity,[7],54%
same,viability at 1 µM,[29],76.5%
same,viability at 10 µM,[30],74.4%
same,viability at 15 µM,[31],69.6%
same,Activity,[32],5.12%
same,Activity,[33],2.83%
same,Activity,[34],2.21%
same,Activity,[35],16.63%
same,Activity,[36],21.34%
same,Activity,[37],24.21%
same,Activity,[38],1.75%
same,Activity,[39],1.39%
same,Activity,[40],3.98%
same,Activity,[41],inactive
same,Activity,[42],inactive
same,inhibition,[21],Active
same,inhibition,[22],Active
same,inhibition,[23],Active
same,inhibition,[24],Active
same,IC50,[25],2.04 nM
